Data as given in US12168676B2, “Microbially derived peptides and proteins for immunotherapy” (Genevive, Inc., priority 2019, dated 2024).
“Also recorded” adds a separate entry of the source.

Key:
[1] = tested on: Splenocytes isolated from naive male C57BL/6 mice; assay: Stimulation of murine naïve splenocytes (Example 1); assay type: cell-based, mouse; details: 10 μM peptide
From the text: This example describes an initial screening assay to identify Bifidobacterium-derived peptides which can activate effector T cells, specifically, CD4 effector T cells which are characterized in part by a CD4^+ CD25^+ FoxP3^− phenotype and CD8 effector cells which are characterized in part by a CD8^+ CD25^+ FoxP3^− phenotype. Splenocytes isolated from naive male C57BL/6 mice (Taconic, 8-14 weeks of age) were resuspended in complete RPMI (RPMI containing 10% FBS plus 1% penicillin/streptomycin) to a final number of 8×10^5 cells/well in a flat-bottom 96-well plate. Cells were then stimulated with 0.05 μg/ml anti-CD3 antibody in the presence of: each peptide (10 μM in water) or ovalbumin peptide amino acids 323-339 (10 μM in water), water (Th0 min H2O), anti-CD3 antibody alone (Th0 min), or with 1 μg/ml anti-CD3, plus IL-12 (10 ng/ml), plus 5 μg/ml anti-IL-4 antibody (positive control to generate Th1 cells). Cells were incubated at 37° C., 5% CO2 for 48 h. See. FIG. 2A, FIG. 2B, and FIG. 2C.
Levels of activated (Tact) CD4 (FIG. 2A) and CD8 (FIG. 2B) T cells, defined by absence of FoxP3 and high CD25 expression, were determined by multicolor flow cytometry. Levels of T cells were then normalized to levels of the T cells when the splenocytes were treated with the OV323-339 negative control peptide. See Levels of IL-2 (FIG. 2C) and IL-17 (FIG. 2D) in culture supernatants were quantified by Luminex analysis. Levels of Granzyme B expression on gated CD8 FoxP3^− T cells were analyzed by flow cytometry. Bars represent mean±SD. (vs. Th0+H2O) by Kruskall-Wallis with uncorrected Dunn's test.
A dose response study was also performed using the above methods wherein naïve mouse splenocytes were treated with increasing doses of SG-3-0020 (1 μM, 5 μM, or 10 μM). Flow cytometry analysis was done to measure frequency of effector CD8 T cells (CD8^+, CD25^+, FoxP3), granzyme B expression on the effector CD8 T cells, and IL-2 expression.

human T cells [2] = assay: Human T cell activation assay, anti-CD3 stimulated purified T cells (Example 2); assay type: cell-based
Protocol: PBMCs were obtained from 5 individual human donors. […] Furthermore, incubation of the T cells with SG-3-0020 increased secretion of IL-2 and IFN-γ (FIG. 6B). […] Such activation may enhance immune action against a tumor in vivo with or without a co-therapy.

[3] = tested on: CT26 tumor-bearing Balb/c mice; assay: Tumor infiltrating lymphocyte composition/activation in CT26 tumor-bearing Balb/c mice (Examples 3 and 9); assay type: in vivo, mouse
Protocol: In vivo studies were performed to study the effects of SG-3-0020 administration on, e.g., immune cell activation and tumor size and to test different routes of administration of SG-3-0020 in CT26 tumor-bearing Balb/c mice and its effects on immune modulation. This mouse model is one of the most widely used mouse models for preclinical testing of new immunotherapeutic drugs (Grosso and Jure-Kunkel, 2013, Cancer Immun, 13:5).
Mice were dosed i.v., i.p., p.t. with SG-3-0020 or PBS. For comparison mice were dosed with CD80-Fc or IgG1-Fc i.v. On Day 7, tumor samples were analyzed for tumor infiltrating lymphocyte (TIL) composition/activation by flow cytometry. The protocol used in this experiment is illustrated in FIG. 7A.
BALB/c male mice (n=5-6/group, 8 weeks of age) were inoculated s.c. with CT26 colon carcinoma cells. SG-B was administered in PBS peritumorally daily at 2.5 mg/kg. Control mice were injected with the corresponding volume of PBS. At Day 13 (AH1 staining)) or Day 7 (Ki67, CD25, OX40 staining) excised tumors were washed with PBS, dissected into smaller fragments using scalpels, and further dissociated into single cell suspensions using the Miltenyi Tumor Dissociation Kit and the GentleMACS Octo dissociator. The digested tumors were filtered through pre-separation filters, washed with PBS, and then used for flow cytometry-based analysis. T lymphocytes were gated as CD4^+ or CD8^+ and then analyzed for surface marker expression by FlowJo 10.5.3. p values calculated by Mann-Whitney test.

CT26 mouse model = assay: CT26 mouse model, tumor volume, monotherapy; assay type: in vivo; details: preliminary results, data not shown
[4] = tested on: T cells isolated from mouse spleens; assay: Mouse T cell activation, anti-CD3 coated plates (Example 4); assay type: cell-based; details: 10 mcM peptide, anti-CD3 0.1 mcg/mL, 48 hours
Protocol: 96-well culture plates were pre-coated with anti-CD3 (0.1 mcg/mL) in 200 mcL. The plates were incubated overnight at 4° C. The plates were washed with PBS three times before plating the cells (Balb/c splenocytes for T-cell isolation by EasySep™ #19851). The cells were plated at 100-200K/well in final volume of 200 mcL of AIM-V. Peptides (10mcM) or 2 mcg/mL anti-CD28 were added to the cells. The cells were incubated for 48 hours at 37° C.
The incubated cells were used for flow cytometry analysis. SG-3-0020 increased expression of T cell activation markers and proliferation of CD4 and CD8 T cells isolated from mouse spleens (FIG. 11A).
The supernatants were used for MSD analysis. SG-3-0020 increased secretion of effector cytokines by T cells isolated from mouse spleens. (FIG. 11B)

human T cells [5] = assay: Activation markers and cytokine secretion with or without anti-CD3, or with CD3/CD28 activator, T cells (Example 5); assay type: cell-based
Protocol: (§1) Activation marker expression on T cells and PBMCs in the presence of peptides (10mcM) or anti-CD28 (10 mcg/mL) was determined after 48 hours of incubation, with or without 0.1 mcg/mL anti-CD3. The data were analyzed by flow cytometry (FIG. 13A-D).
Cytokine secretion on T cells in the presence of peptides (10mcM) or anti-CD28 (10 mcg/mL) after 48 h of incubation, with or without 0.1 mcg/mL anti-CD3, was determined. The data were analyzed by MSD (FIG. 14).
Human T cells were activated with ImmunoCult™ Human CD3/CD28 T Cell Activator in the presence of peptides (10mcM) and cytokine secretion was analyzed after 48 hours of incubation by MSD. […] Activation with anti-CD3 on both isolated T cells and PBMCs was required for SG-3-0020-mediated effects.

PBMCs = assay: Activation marker expression with or without anti-CD3, PBMCs (Example 5); assay type: cell-based, human; details: 10 mcM, with or without 0.1 mcg/mL anti-CD3, 48 hours
Protocol: as §1

activated human T cell = assay: NanoString nCounter Human PanCancer Immune profiling of activated T cells (Example 6); assay type: cell-based; details: RNA, T cells of 5 donors, 10 μM vs vehicle
Protocol: T cells were isolated from 5 individual blood donors and activated as described previously. RNA expression levels were determined by the NanoString nCounter Human PanCancer Immune profiling.

human T cells [6] = assay: Phage binding to T cells, titers of eluted phages (Example 7)
Protocol: The binding of SG-3-0020 phages to target cells (naïve T-cell, activated T-cell) was tested.
Biotinylated peptide stock (1 mM) was diluted to 1 uM (×1,000-fold) with 1×PBS+2% BSA. 150 mcL of phages (multivalent display) were mixed with 70 mcL of 1×PBS+2% BSA. The solution was rotated at room temperature for 1 hour.
The cells, either naïve T-cells (about 13×10^6 cells) or activated T-cells (about 16×10^6 cells) were thawed. The cells were then centrifuged at 1,500 for 5 min at 4° C., and the supernatant was aspirated. The cell pellets were washed with 5 mL of 1×PBS+2% BSA by pipetting. This was repeated such that the pellets were centrifuged and washed a total of 3 times.
The cell pellets were resuspended with 1050 mcL of 1×PBS+2% BSA, and 100 mcL of phage (M13 bacteriophage G8P capsid antibody-FITC from antibodies-online Inc (Cat #: ABIN 125966)) were added into a well of 96-well plates (phage binding). 150 mcL of diluted biotinylated peptide were added into a well of 96-well plates (biotinylated peptide binding). 100 mcL of resuspended cells were added into the wells for phage binding and 50 mcL of resuspended cells were added into the wells for biotinylated peptide binding.
The cells were put on the rocker and incubated at 4° C. for 2 hours for binding and then centrifuged at 1,500 for 5 min at 4° C. The supernatant was discarded. […]

[7] = 0.05 μg/ml anti-CD3, 48 h, flow cytometry
[8] = anti-CD3 stimulated purified T cells
[9] = anti-CD3 stimulated purified T cells, 5 donors
[10] = vs activated T cells without SG-3-0020, data not shown
[11] = peri-tumoral injections twice daily (b.i.d.)

SG-3-0020: Bifidobacterium breve-derived peptide, SEQ ID NO:1 MLSTKKTKTHDHYPCGRMRDPGWHDWRACLTHQGIEEDEWPV, chemically synthesized for the Examples (Bifidobacterium breve)
frequency of activated (Tact) CD4 T cells (CD25+/FoxP3-) [1, 7]: increase; also recorded: enhance | frequency of activated (Tact) CD8 T cells (CD25+/FoxP3-) [1, 7]: increase; also recorded: enhance | IL-2 secretion in culture supernatants ([1]; 48 h, Luminex): facilitate | IL-17 secretion in culture supernatants ([1]; 48 h, Luminex): facilitate | Granzyme B expression in CD8 T cells ([1]; 48 h, flow cytometry): promote induction | IFN-γ secretion (human T cells [2]; [8]): increased | IL-2 secretion (human T cells [2]; [8]): increased | IL-10 secretion (human T cells [2]; [8]): increase | TNF-α secretion (human T cells [2]; [8]): increase | PD-1 expression on CD4+ cells (human T cells [2]; [9]): increased | PD-1 expression on CD8+ cells (human T cells [2]; [9]): increased | cytokine-stimulating activity, donors responding (human T cells [2]; purified T cell system in the presence of anti-CD3 antibody): 5/5 | CD4+CD25+ T cells (human T cells [2]; [10]): increase | CD4+ICOS+ T cells (human T cells [2]; [10]): increase | CD4+OX40+ T cells (human T cells [2]; [10]): increase | CD8+ICOS+ T cells (human T cells [2]; [10]): increase | CD8+OX40+ T cells (human T cells [2]; [10]): increase | CD8CD25+ T cells (human T cells [2]; [10]): increase | CD8+CD25+ cells in tumor infiltrating lymphocytes ([3]; Day 7, flow cytometry): increase | CD8+Ki67+ cells in tumor infiltrating lymphocytes ([3]; Day 7, flow cytometry): increase | CD8+OX40+ cells in tumor infiltrating lymphocytes ([3]; Day 7, flow cytometry): increase | NK cells in tumor infiltrating lymphocytes ([3]; Day 7, flow cytometry): increase | Tetramer staining (AH1 epitope) ([3]; Day 13): positive effect | activated CD8+ T cell frequency within the TIL compartment ([3]; mouse, in vivo): increases | NK cell frequency in the TIL compartment [3, 11]: increase | activated CD8+ T cell frequency in the TIL compartment [3, 11]: increase | tumor volume (CT26 mouse model): decrease | secretion of effector cytokines ([4]; MSD): increased | expression of T cell activation markers ([4]; flow cytometry): increased | proliferation of CD4 and CD8 T cells ([4]; flow cytometry): increased | dependence of SG-3-0020-mediated effects on activation with anti-CD3, isolated T cells (human T cells [5]; 10 mcM, with or without 0.1 mcg/mL anti-CD3, 48 hours): required | cytokine secretion in combination with anti-CD28 activation (human T cells [5]; ImmunoCult Human CD3/CD28 T Cell Activator, 10 mcM peptide, 48 hours, MSD): increases activity | dependence of SG-3-0020-mediated effects on activation with anti-CD3, PBMCs (PBMCs): required | CD96 expression (activated human T cell): decrease | CTSL expression (activated human T cell): increase | CXCL10 expression (activated human T cell): decrease | CXCR6 expression (activated human T cell): decrease | DUSP6 expression (activated human T cell): increase | GZMK expression (activated human T cell): decrease | IL-2 expression (activated human T cell): increase | IL-3 expression (activated human T cell): increase | IL-9 expression (activated human T cell): increase | IL-10 expression (activated human T cell): increase | IL-21 expression (activated human T cell): increase | IL-24 expression (activated human T cell): increase | IRF1 expression (activated human T cell): decrease | ISG20 expression (activated human T cell): decrease | LY9 expression (activated human T cell): decrease | SLAMF7 expression (activated human T cell): decrease | SMAD3 expression (activated human T cell): decrease | STAT1 expression (activated human T cell): decrease | TCF7 expression (activated human T cell): decrease | binding to human T cells (human T cells [6]; FIG. 17, phage titer): binds | phage titer, binding to the activated T-cells compared to empty phages (human T cells [6]; multivalent display phage, 4° C., 2 hours): more bound
